Reference: patent US12161630B2, “Methods to control infection using new generation small molecule growth inhibitors” (priority 2017, dated 2024)
In brackets after ≈: the same amount, converted by molar mass.

Key:
Kan^R S. typhimurium = test: Salmonella clearance in one-week-old infected broiler chickens; assay type: in vivo; details: 100 μg orally twice daily for 5 days; for Chicken tissues positive for Salmonella: Ceca / Chicken tissues positive for Salmonella: Livers / Chicken tissues positive for Salmonella: Spleens: n = 10; for reduction in Salmonella population inside the ceca: compared to DMSO group
Experimental: FIG. 7. Experimental design of the Salmonella clearance study in one-week-old infected broiler chickens. Salmonella-free chickens were orally infected with 10^4 S. typhimurium units per chickens (0 DPI). After confirmation of the intestinal colonization by Salmonella (1 DPI), ten chicks per treatment were treated twice a day for five days with 100 μg of SMs (3 DPI to 7 DPI). Ceca, liver, and spleen tissues were collected at 8 DPI. DPI: days post-inoculation.
Effect of selected SMs on the survival of S. typhimurium in one-week-old SFP chickens: One-week-old Salmonella-free chickens were orally inoculated with approximately 10^4 Kan^R S. typhimurium bacteria. A rectal swab was collected to confirm the intestinal colonization by Salmonella at one day post-inoculation (DPI). At 3 DPI, chickens were treated orally twice a day for five days with a specific treatment of approximately 920 μg/kg SMs per dose. Details of the treatment groups are described in Table 7. Feeders were taken off one hour before the treatment and put back one hour after the treatment. Following the five days of treatment, chickens were euthanized and tissues were aseptically collected (ceca, liver, and spleen). One of the cecum was immediately stored at −80° C. after sampling for microbiota studies. Ceca, spleens, and livers tissues were suspended in 2, 3, and 5 mL of 1×PBS respectively and grinded. 1 mL of the undiluted homogenized tissue mix was enriched in 9 mL of tetrathionate broth (TTB) medium for 18 hrs at 37° C. The rest of the homogenized tissues were serial ten-fold diluted, plated on XLT4 agar plate supplemented with 50 μg/ml kanamycin, and incubated for 36 hrs at 37° C. Bacterial counts were compared with the DMSO control group.

S. typhimurium WT = test: High-throughput primary screen for S. typhimurium growth inhibitors at 200 μM; assay type: cell-based, Salmonella enterica subsp. enterica serovar Typhimurium LT2; details: adjusted M9 minimal broth, 12 hrs, 37° C., bactericidal = 100% growth inhibition and no growth on XLT4 agar, bacteriostatic = 100% growth inhibition but growth on XLT4 agar
Experimental: (§1) Identification of S. typhimurium growth inhibitors: The 4182 small molecules (SMs) were screened at 200 μM against S. typhimurium WT using HTS assay in a 96-well plate format. An overnight Salmonella suspension was normalized at 0.05 OD600 (approximately 3.5×10^7 CFU/ml) with an adjusted M9 minimal broth medium (12.7 mM Na2HPO4 7H2O; 22 mM KH2PO4; 18.7 mM NH4Cl; 2 mM MgSO4; 0.1 mM CaCl2; 0.4% glucose; 0.05% casamino acids). 100 μL of the suspension plus 2 μl of SMs (200 μM) were transferred into each well of a sterile, non-treated, flat bottom 96-well plate. Bacteria alone (negative control, NC), 2% DMSO plus bacteria (DMSO control), 20 μg/ml chloramphenicol or 50 μg/ml kanamycin plus bacteria (positive controls, PC), and M9 medium only were used as control. Plates were incubated in a Sunrise™ Tecan kinetic microplate reader for 12 hrs at 37° C. and the optical density (OD) was measure at 600 nm as described above. Percentage of inhibition=[…]. SMs were identified as growth inhibitors if their inhibition value after incubation was above 20% (value representing the inhibition level monitored with the DMSO controls). Cultures from wells showing no turbidimetric increase were transferred onto a XLT4 agar plate. Plates were incubated at 37° C. for 36 hrs.

Salmonella Heidelberg = test: MIC and MBC dose-response, serotype Heidelberg; assay type: cell-based, Salmonella enterica; details: MIC identical to MBC
Experimental: as §1, with “An” for “Identification of S. typhimurium growth inhibitors: The 4182 small molecules (SMs) were screened at 200 μM against S. typhimurium WT using HTS assay in a 96-well plate format. An”, “SMs were identified as growth inhibitors if their inhibition value after incubation was above 20% (value representing the inhibition level monitored with the DMSO controls).” left out
(§2) Screens were performed as described in the primary screen. The lowest SM concentration with a static effect was considered as the minimal inhibitory concentration (MIC) and the lowest SM concentration with a cidal effect was considered as the minimal bactericidal concentration (MBC).

Salmonella Javiana = test: MIC and MBC dose-response, serotype Javiana; assay type: cell-based, Salmonella enterica; details: MIC identical to MBC
Experimental: as §1, with “An” for “Identification of S. typhimurium growth inhibitors: The 4182 small molecules (SMs) were screened at 200 μM against S. typhimurium WT using HTS assay in a 96-well plate format. An”, “SMs were identified as growth inhibitors if their inhibition value after incubation was above 20% (value representing the inhibition level monitored with the DMSO controls).” left out
as §2

[1] = test system: S. typhimurium WT internalized in Caco-2 cells; test: S. typhimurium intracellular survival in infected Caco-2 cells; assay type: cell-based; details: S. Typhimurium-infected Caco-2 cells, 24 hrs treatment
Experimental: Effect of the four SMs on S. typhimurium intracellular survival in cells lines: The ability of four SMs to clear S. typhimurium WT […] was evaluated using three cell lines (Caco-2 cells, HD11, and THP-1 cells). The Salmonella intracellular survival as assessed as described (13). A multiplicity of infection “MOI” of 10 was used. Infected cells were treated with 1 μl of SMs (final concentration ranged between 100 μM and 6.25 μM) at 37° C. for 24 hrs in humidified, 5% CO2 incubator. Following incubation, cells were washed once with 150 μl of 1×PBS, lysed with 0.1% Triton-100X, serial ten-fold diluted in 1×PBS, and plated on agar plate. Plates were incubated at 37° C. for 24 hrs to determine the intracellular survival. Cells not infected and not treated, and cells infected and treated with 2% DMSO were used as controls.

Salmonella Muenchen = test: MIC and MBC dose-response, serotype Muenchen; assay type: cell-based, Salmonella enterica; details: MIC identical to MBC
Experimental: as §1, with “An” for “Identification of S. typhimurium growth inhibitors: The 4182 small molecules (SMs) were screened at 200 μM against S. typhimurium WT using HTS assay in a 96-well plate format. An”, “SMs were identified as growth inhibitors if their inhibition value after incubation was above 20% (value representing the inhibition level monitored with the DMSO controls).” left out
as §2

Salmonella Enteritidis = test: MIC and MBC dose-response, serotype Enteritidis; assay type: cell-based, Salmonella enterica; details: MIC identical to MBC
Experimental: as §1, with “An” for “Identification of S. typhimurium growth inhibitors: The 4182 small molecules (SMs) were screened at 200 μM against S. typhimurium WT using HTS assay in a 96-well plate format. An”, “SMs were identified as growth inhibitors if their inhibition value after incubation was above 20% (value representing the inhibition level monitored with the DMSO controls).” left out
as §2

Structure (SMILES) | Chicken tissues positive for Salmonella: Ceca (Kan^R S. typhimurium) | Chicken tissues positive for Salmonella: Livers (Kan^R S. typhimurium) | Chicken tissues positive for Salmonella: Spleens (Kan^R S. typhimurium) | Effect on S. Typhimurium at 200 μM (S. typhimurium WT) | MIC/MBC (Salmonella Heidelberg) | MIC/MBC (Salmonella Javiana) | MBC (μm), Caco-2 cells [1] | MIC/MBC (Salmonella Muenchen) | MIC/MBC (Salmonella Enteritidis) | reduction in Salmonella population inside the ceca (Kan^R S. typhimurium)
CCOc1cc(/C=N/N=C(N)N)ccc1OCc1ccc(Cl)cc1 [SM5, N″-{4-[(4-chlorobenzyl)oxy]-3-ethoxybenzylidene}carbonohydrazonic diamide] | 70% | 40% | 30% | Bactericidal | 50 µM (≈ 17.3 µg/mL) | 50 µM (≈ 17.3 µg/mL) | 12.5 µM (≈ 4.34 µg/mL) | 50 µM (≈ 17.3 µg/mL) | 50 µM (≈ 17.3 µg/mL) | 
CC1CCC(C(C)C)C(OC(=O)Cn2c[n+](CC(=O)OC3CC(C)CCC3C(C)C)c3ccccc32)C1.[Cl-] (centres unmarked) [SM1, 1,3-bis{2-[(2-isopropyl-5-methylcyclohexyl)oxy]-2-oxoethyl}-1H-3,1-benzimidazol-3-ium chloride] | 90% | 40% | 50% | Bactericidal | 100 µM | 100 µM | 25 µM | 100 µM | 100 µM | did not show any reduction
CCCCCCCCCCCCCCCCn1c[n+](C)c2ccccc21.[Br-] [SM4, 1-hexadecyl-3-methyl-1H-3,1-benzimidazol-3-ium bromide] | 40% | 30% | 20% | Bactericidal | 25 µM | 10 µM | 25 µM | 25 µM | 10 µM | 
CCCCCCCCCCCCCCCC[n+]1ccn(CC#N)c1.[Cl-] [SM3, 1-(cyanomethyl)-3-hexadecyl-1H-imidazol-3-ium chloride] | 80% | 60% | 50% | Bactericidal | 50 µM | 25 µM | 50 µM | 50 µM | 25 µM | did not show any reduction
